In US20250288603A1, “ANIMAL FOOD COMPOSITION COMPRISING A SOURCE OF GLYCYRRHIZIN” (MARS, INCORPORATED, priority 2022, published 2025):

Legend:
healthy adult dogs [1] = experiment: Glycyrrhizin safety study: plasma aldosterone concentration; type: in vivo, dog; conditions: adult dogs, 0.2, 0.4 and 0.6 mg/kg Bwt/day, 28 days each
Source text: (§1) Dogs. Sixteen privately owned healthy adult dogs, both male and female, were included in the study. In particular, the dogs were Beagles, Brittany spaniels or Dachshunds weighing between 5 and 21 kg. Twelve dogs were females and four dogs were males.
(§2) Glycyrrhizin Source. The glycyrrhizin source was provided by a licorice root extract comprising 12% glycyrrhizin formulated in gelatin capsules. The licorice root extract was commercially obtained from Naturex (Avignon, France), product reference DAB40178.
Commercially available pharmaceutical grade gelatin capsules (Capsuline, Dania Beach, Florida, US) were filled to capacity with precisely weight mixtures of licorice powder and 100% pure maltodextrin powder (Bulk Powders, Colchester, UK). […]
Dosage. The doses to be administered to each dog were calculated based on five different bodyweight groups. […]
Small volume blood samples (4 ml) were taken on the days indicated in the protocol description above in order to determine blood potassium, sodium and calcium, creatinine and aldosterone concentration. […] Urinary creatinine concentrations were also measured so that Fractional Excretion Rate (FER) for sodium, potassium and calcium could be calculated. […]

healthy adult dogs [2] = experiment: Glycyrrhizin safety study: systolic blood pressure (oscillometric method); type: in vivo, dog; conditions: for effect on blood pressure, D0 versus any later time point: adult dogs, 0.2, 0.4 and 0.6 mg/kg Bwt/day, 28 days each; for overall mean systolic blood pressure: dogs
Source text: as §1, §2
(§3) Commercially available pharmaceutical grade gelatin capsules (Capsuline, Dania Beach, Florida, US) were filled to capacity with precisely weight mixtures of licorice powder and 100% pure maltodextrin powder (Bulk Powders, Colchester, UK). The weighed combinations of licorice and maltodextrin powders were prepared in such a way that, when mixed together and placed in the capsules, provided the dogs with daily glycyrrhizin doses according to the schedule of 0.2 mg/kg Bwt/day, followed by 0.4 mg/kg Bwt/day, followed by 0.6 mg/kg Bwt/day.
(§4) Dosage. The doses to be administered to each dog were calculated based on five different bodyweight groups. Separate capsules were weighed out for each group. The licorice root extract was mixed with maltodextrin order to deliver the same volume of overall powdered material to each dog. Capsules were fed to the dogs inside a meatball of wet petfood.
(§5) In total, three different doses of glycyrrhizin were fed to the dogs, in each case for 28 days. These dosages were 0.2 mg/kg of Bwt/day, 0.4 mg/kg of Bwt/day, and 0.6 mg/kg of Bwt/day.
(§6) Each of the dogs underwent the following protocol cycle, which was repeated for each of the tested concentrations. The first cycle was dosed at 0.2 mg of glycyrrhizin (Gly)/kg Bwt/day. The second cycle was dosed at 0.4 mg Gly/kg Bwt/day. The third cycle was dosed at 0.6 mg Gly/kg Bwt/day.
[…]: Baseline measurements were taken: blood pressure and potassium, sodium and calcium, creatinine and aldosterone concentrations in the blood and urine.
Day 0: Dosing of licorice began (the concentration of glycyrrhizin is adapted according to the first, second or third cycle of the protocol, as indicated above). One dose was provided to each dog per day, with their morning meal.
Days 1-27: One dose was provided to each dog per day, with their morning meal.
(§7) Days 2, 4, 7, 14, 21 and 28: Blood pressure and potassium, sodium and calcium, creatinine and aldosterone concentrations in the blood and urine measurements were taken.
Day 28: Washout began and the dogs returned to their maintenance diet alone, i.e., no more licorice was fed to them. The washout period lasted two weeks. At days 34 and 41 blood pressure and potassium, sodium and calcium, creatinine and aldosterone concentrations in the blood and urine measurements were taken again.
Protocol Details. The licorice root extract was dosed according to the given glycyrrhizin (Gly) concentrations for each cycle of the protocol in sequence: 0.2 mg/kg Bwt/day, 0.4 mg/kg Bwt/day, and 0.6 mg/kg Bwt/day.
Blood pressure was measured for each animal on multiple occasions, the first reading being discarded. BP was measured via the Oscillometric method. Each measurement, if it was shown that a dog's average blood pressure has risen to a potentially deleterious level (normally >160 mmgHg), could result in removal of a dog from the study (temporarily or permanently), according to veterinarian's discretion. All dogs were habituated to the Oscillometic device and the process of BP measurement before the start of the study. If there was evidence of stress for any dog before or during the BP procedure, the procedure for that dog was stopped and restarted when the dog was calmed again. Where necessary a dog could be given interim intensive habituation. […] Typical blood pressure ranges for the 3 breeds used were known and were considered when judging the normality of the BP measurements taken during the study. […]

healthy adult dogs [3] = experiment: Glycyrrhizin safety study: fractional potassium excretion; type: in vivo, dog; conditions: for effect on fractional potassium excretion, D0 versus any later time point: adult dogs, 0.2, 0.4 and 0.6 mg/kg Bwt/day, 28 days each; for overall mean fractional potassium excretion: dogs
Source text: as §1, §2, §3, §4, §5, §6, §7
Small volume blood samples (4 ml) were taken on the days indicated in the protocol description above in order to determine blood potassium, sodium and calcium, creatinine and aldosterone concentration. Free catch urine (minimum 3 ml) was conducted on each day as indicated above in order to determine concentrations of urinary potassium, sodium and calcium. Urinary creatinine concentrations were also measured so that Fractional Excretion Rate (FER) for sodium, potassium and calcium could be calculated.
FER is calculated according to the equation: […]
Statistics: A linear mixed model was used for assessing the effect of Diet (Glycyrrhizin dose). Animal was modelled as random term. Tukey HSD was used for alpha correction for multiple comparisons. Level of significance was set at 5% for two-sided test.
Fractional Potassium Excretion. The results are expressed in percentage of the potassium excreted in the urine as compared to the amount of potassium filtered and retained by the kidneys.

[4] = dogs; cited from earlier work
[5] = 0.2 mg Gly/kg Bwt/day oral, Day 0
[6] = 0.2 mg Gly/kg Bwt/day oral, Day 2
[7] = 0.2 mg Gly/kg Bwt/day oral, Day 4
[8] = 0.2 mg Gly/kg Bwt/day oral, Day 7
[9] = 0.2 mg Gly/kg Bwt/day oral, Day 14
[10] = 0.2 mg Gly/kg Bwt/day oral, Day 21
[11] = 0.2 mg Gly/kg Bwt/day oral, Day 28
[12] = 0.4 mg Gly/kg Bwt/day oral, Day 0
[13] = 0.4 mg Gly/kg Bwt/day oral, Day 2
[14] = 0.4 mg Gly/kg Bwt/day oral, Day 4
[15] = 0.4 mg Gly/kg Bwt/day oral, Day 7
[16] = 0.4 mg Gly/kg Bwt/day oral, Day 14
[17] = 0.4 mg Gly/kg Bwt/day oral, Day 21
[18] = 0.4 mg Gly/kg Bwt/day oral, Day 28
[19] = 0.6 mg Gly/kg Bwt/day oral, Day 0
[20] = 0.6 mg Gly/kg Bwt/day oral, Day 2
[21] = 0.6 mg Gly/kg Bwt/day oral, Day 4
[22] = 0.6 mg Gly/kg Bwt/day oral, Day 7
[23] = 0.6 mg Gly/kg Bwt/day oral, Day 14
[24] = 0.6 mg Gly/kg Bwt/day oral, Day 21
[25] = 0.6 mg Gly/kg Bwt/day oral, Day 28

For `CC1(C)[C@@H](O[C@H]2O[C@H](C(=O)O)[C@@H](O)[C@H](O)[C@H]2O[C@@H]2O[C@H](C(=O)O)[C@@H](O)[C@H](O)[C@H]2O)CC[C@]2(C)[C@H]3C(=O)C=C4[C@@H]5C[C@@](C)(C(=O)O)CC[C@]5(C)CC[C@@]4(C)[C@]3(C)CC[C@@H]12` [Gly, glycyrrhizin], the “effect on plasma aldosterone concentration, D0 versus any later time point” value (healthy adult dogs [1]) was “no significant difference”, the “effect on plasma aldosterone concentration, D0 versus any later time point” value (healthy adult dogs [1]; listed as Glycyrrhizin) was “no significant impact” and the “effect on blood pressure, D0 versus any later time point” value (healthy adult dogs [2]) was “no significant difference”. For the same compound, the “effect on blood pressure, D0 versus any later time point” value (healthy adult dogs [2]; listed as Glycyrrhizin) was “no significant impact”, the “overall mean systolic blood pressure” value (healthy adult dogs [2]; [5]) was 120 mmHg and the “overall mean systolic blood pressure” value (healthy adult dogs [2]; [6]) was 127 mmHg. The “overall mean systolic blood pressure” value (healthy adult dogs [2]; [7]) was 125 mmHg, the “overall mean systolic blood pressure” value (healthy adult dogs [2]; [8]) was 126 mmHg and the “overall mean systolic blood pressure” value (healthy adult dogs [2]; [9]) was 126 mmHg. For the same compound, the “overall mean systolic blood pressure” value (healthy adult dogs [2]; [10]) was 122 mmHg, the “overall mean systolic blood pressure” value (healthy adult dogs [2]; [11]) was 121 mmHg and the “overall mean systolic blood pressure” value (healthy adult dogs [2]; [12]) was 118 mmHg. The “overall mean systolic blood pressure” value (healthy adult dogs [2]; [13]) was 117 mmHg, the “overall mean systolic blood pressure” value (healthy adult dogs [2]; [14]) was 119 mmHg and the “overall mean systolic blood pressure” value (healthy adult dogs [2]; [15]) was 125 mmHg. The “overall mean systolic blood pressure” value (healthy adult dogs [2]; [16]) was 122 mmHg, the “overall mean systolic blood pressure” value (healthy adult dogs [2]; [17]) was 120 mmHg and the “overall mean systolic blood pressure” value (healthy adult dogs [2]; [18]) was 124 mmHg. The “overall mean systolic blood pressure” value (healthy adult dogs [2]; [19]) was 125 mmHg, the “overall mean systolic blood pressure” value (healthy adult dogs [2]; [20]) was 119 mmHg and the “overall mean systolic blood pressure” value (healthy adult dogs [2]; [21]) was 123 mmHg. For the same compound, the “overall mean systolic blood pressure” value (healthy adult dogs [2]; [22]) was 125 mmHg, the “overall mean systolic blood pressure” value (healthy adult dogs [2]; [23]) was 123 mmHg and the “overall mean systolic blood pressure” value (healthy adult dogs [2]; [24]) was 124 mmHg. The “overall mean systolic blood pressure” value (healthy adult dogs [2]; [25]) was 122 mmHg, the “effect on fractional potassium excretion, D0 versus any later time point” value (healthy adult dogs [3]) was “no significant difference” and the “effect on fractional potassium excretion, D0 versus any later time point” value (healthy adult dogs [3]; listed as Glycyrrhizin) was “no significant impact”. For the same compound, the “overall mean fractional potassium excretion” value (healthy adult dogs [3]; [5]) was 16.54%, the “overall mean fractional potassium excretion” value (healthy adult dogs [3]; [6]) was 15.74% and the “overall mean fractional potassium excretion” value (healthy adult dogs [3]; [7]) was 15.59%. The “overall mean fractional potassium excretion” value (healthy adult dogs [3]; [8]) was 15.06%, the “overall mean fractional potassium excretion” value (healthy adult dogs [3]; [9]) was 13.33% and the “overall mean fractional potassium excretion” value (healthy adult dogs [3]; [10]) was 20.02%. For the same compound, the “overall mean fractional potassium excretion” value (healthy adult dogs [3]; [11]) was 16.54%, the “overall mean fractional potassium excretion” value (healthy adult dogs [3]; [12]) was 16.02% and the “overall mean fractional potassium excretion” value (healthy adult dogs [3]; [13]) was 15.56%. The “overall mean fractional potassium excretion” value (healthy adult dogs [3]; [14]) was 16.02%, the “overall mean fractional potassium excretion” value (healthy adult dogs [3]; [15]) was 15.72% and the “overall mean fractional potassium excretion” value (healthy adult dogs [3]; [16]) was 16.87%. For the same compound, the “overall mean fractional potassium excretion” value (healthy adult dogs [3]; [17]) was 16.09%, the “overall mean fractional potassium excretion” value (healthy adult dogs [3]; [18]) was 16.27% and the “overall mean fractional potassium excretion” value (healthy adult dogs [3]; [19]) was 16.48%. The “overall mean fractional potassium excretion” value (healthy adult dogs [3]; [20]) was 18.08%, the “overall mean fractional potassium excretion” value (healthy adult dogs [3]; [21]) was 17.48% and the “overall mean fractional potassium excretion” value (healthy adult dogs [3]; [22]) was 13.15%. The “overall mean fractional potassium excretion” value (healthy adult dogs [3]; [23]) was 15.64%, the “overall mean fractional potassium excretion” value (healthy adult dogs [3]; [24]) was 14.93% and the “overall mean fractional potassium excretion” value (healthy adult dogs [3]; [25]) was 16.48%. The “Presumed Safe Intake (PSI)” value [4] was 1 mg/kg of complete feed, the “Presumed Safe Intake (PSI), estimated amount per bodyweight” value [4] was ~0.02 mg/kg of bodyweight (Bwt) per day and the “Presumed Safe Intake (PSI), estimated daily amount” value [4] was ~0.3 mg/day.
